{
  "source": "patent US20050075271A1",
  "about": "“Crystalline beta2 adrenergic receptor agonist” (priority 2002, published 2005)",
  "type_in_all_cases": "physicochemical",
  "key": {"[1]": {"experiment": "Stability testing of aqueous nebulizer formulation (Formulation Example 1), HPLC, 1-4 months storage", "details": "for Percent of active compound remaining: aqueous formulation 0.1 mg/g, pH 5.00", "protocol": "(§1) An aqueous aerosol formulation for nebulizer administration having 0.1 mg of the active compound, compound 1, per gram of solution was prepared by the following procedure. Citric acid (755.8 mg) was added to a vessel charged with 0.9% sodium chloride solution (325.7 g). The active ingredient (42.3 mg) was added to the sodium chloride solution and the resulting mixture was stirred for 5 min and sonicated for 7 min to dissolve the active ingredient. The intial pH of the solution was determined to be 2.54. 1 N NaOH (7.1 g) was slowly added to the solution to obtain a final pH of 5.00. An additional amount of 0.9% sodium chloride solution (26.7 g) was added and the resulting solution was stirred to provide the aqueous formulation (360.3 g).\nAliquots of the formulation prepared as in Example 1 were stored at −20° C., 5° C., room temperature, and 40° C. Samples were removed for analysis by HPLC at 1 month intervals. HPLC analysis was conducted using a Zorbax RP-bonus, C14, 25 cm×4.6 mm column, equilibrated at 35° C. The mobile phases used were: A: 0.1% TFA in 98:2 water:acetonitrile; and B: 0.1% TFA in 10:90 water:acetonitrile. Detection was by UV absorbance at 215 nm. A flow rate of 1.0 mL/min and a gradient of 0 to 60% B over 20 minutes was utilized. The percent of active compound 1 remaining after the indicated period, normalized to the sample stored at −20° C. is given in Table 1 below."}, "[2]": {"experiment": "Second stability test of aqueous nebulizer formulation, HPLC, 4-9 months storage", "details": "normalized to −20° C. sample", "protocol": "as §1\nIn a second stability test, aliquots were prepared and stored as above. Samples were removed for analysis by HPLC at various intervals. HPLC analysis was conducted using a MAC MOD Ace-5, C18, 25 cm×4.6 mm, 5 μm column, equilibrated at 30° C. The mobile phases were as described above. Detection was by UV absorbance at 244 nm. The initial condition was 6% phase B. A flow rate of 1.0 mL/min and a gradient of 6 to 30% B over 25 min, 30% to 60% B in 10 min and 60% to 100% B in 2 min were utilized. The retention time of compound 1 was approximately 20 min. The percent of active compound 1 remaining after the indicated period, normalized to the sample stored at −20° C. is given in Table 2 below."}, "[3]": {"experiment": "Second stability test of aqueous nebulizer formulation, HPLC, 4-9 months storage", "details": "nine months at 5° C."}, "[4]": {"experiment": "Solid state stability testing of crystalline diHCl salt, ground and unground, 30 days (DSC, TGA, XRPD, HPLC)", "details": "for crystal stability by DSC after exposure to elevated temperature and humidity: 40° C. and 75% relative humidity vs room temperature desiccator, ground and unground samples, dihydrochloride", "protocol": "A single lot of the crystalline diHCl salt of compound 1]prepared as in Example 6, was used to prepare four samples of approximately 30 mg each. Two samples were ground to fine particles with a mortar and pestle. Two samples, one ground and one that had not been processed, were stored in a closed chamber at 40° C. and 75% relative humidity for 30 days and two samples, one ground and one that had not been processed, were stored at room temperature in a desiccators for the same period. Samples were withdrawn for analysis by DSC and TGA at 11 days and by XRPD and HPLC at 30 days.\nX-ray powder diffraction patterns were obtained with a Shimadzu 6000 diffractometer using Cu Kα (40.0 kV, 35.0 mA) radiation. The analysis was performed with the goniometer running in continuous-scan mode of 2°/min with a step size of 0.02° over a range of 4 to 45°. Samples were prepared on glass specimen holders as a thin layer of powdered material.\nDifferential scanning calorimetry traces were obtained with a TA instruments model DSC2010. Samples were placed in sealed aluminum pans for analysis with an empty pan serving as the reference. Samples were equilibrated at 30° C. and heated at 5° C. per minute to a temperature of 300° C. The instrument was calibrated with an indium standard.\n(§2) Thermogravimetric analysis was conducted using a TA instruments model Q50. Samples were weighed in aluminum pans and heated from 50° C. to 300° C. at a rate of 10° C./min. Water content was estimated by measuring the total weight loss between 50° and 120° C. (a range in which no significant decomposition was observed).\n(§3) Unless otherwise indicated, HPLC analysis was conducted using a Zorbax RP-bonus, C14, 25 cm×4.6 mm column, equilibrated at 35° C. The mobile phases used were: A: 0.1% TFA in 98:2 water:acetonitrile; and B: 0.1% TFA in 10:90 water:acetonitrile. Detection was by UV absorbance at 215 nm. A flow rate of 1.0 mL/min and a gradient of 0 to 60% B over 20 minutes was utilized. The diHCl salt of compound 1 gave a retention time of 11.7 min."}, "[5]": {"experiment": "Solid state stability of recrystallized diHCl salt, 6 months at 40° C. and 75% relative humidity", "protocol": "In another test, samples of the recrystallized diHCl salt of Example 7a were stored at 40° C. and 75% relative humidity.\nas §2, §3\nChiral purity was determined using a Beckman P/ACE MDQ capillary electrophoresis system. The analysis was performed at pH 2.5 using heptakis-(2,3,-diacetyl-6-sulfato)-β-cyclodextrin (HDAS-β-CD) as the chiral selector and using a 50 μm×31.2 cm fused silica capillary. Detection was by UV absorbance at 200 nm. The four stereoisomers migrate in the following order: SS, RS, SR, RR, where compound 1 is designated as RR."}, "[6]": {"details": "40° C. and 75% relative humidity, 30 days, ground and unground"}, "[7]": {"details": "6 months at 40° C. and 75% relative humidity"}},
  "data": [
    {"smiles": "O=CNc1cc([C@@H](O)CNCCc2ccc(NC[C@H](O)c3ccccc3)cc2)ccc1O", "note": "[compound 1, N-{2-[4-((R)-2-hydroxy-2-phenylethylamino)phenyl]ethyl}-(R)-2-hydroxy-2-(3-formamido-4-hydroxyphenyl)ethylamine]", "values": [
      {"measurement": "Percent of active compound remaining", "setting": "[1]; 5° C., 1 month, normalized to sample stored at −20° C.", "value": 101, "unit": "%"},
      {"measurement": "Percent of active compound remaining", "setting": "[1]; 5° C., 2 months, normalized to −20° C. sample", "value": 100, "unit": "%"},
      {"measurement": "Percent of active compound remaining", "setting": "[1]; 5° C., 3 months, normalized to −20° C. sample", "value": 100, "unit": "%"},
      {"measurement": "Percent of active compound remaining", "setting": "[1]; 5° C., 4 months, normalized to −20° C. sample", "value": 99, "unit": "%"},
      {"measurement": "Percent of active compound remaining", "setting": "[1]; 40° C., 1 month, normalized to −20° C. sample", "value": 94, "unit": "%"},
      {"measurement": "Percent of active compound remaining", "setting": "[1]; 40° C., 2 months, normalized to −20° C. sample", "value": 87, "unit": "%"},
      {"measurement": "Percent of active compound remaining", "setting": "[1]; 40° C., 3 months, normalized to −20° C. sample", "value": 72, "unit": "%"},
      {"measurement": "Percent of active compound remaining", "setting": "[1]; 40° C., 4 months, normalized to −20° C. sample", "value": 74, "unit": "%"},
      {"measurement": "chemical degradation of nebulizer solution upon storage (HPLC)", "setting": "[1]; nebulizer solution 0.1 mg compound 1 per gram, four months at room temperature", "value": "no unacceptable chemical degradation"},
      {"measurement": "Percent of active compound remaining", "setting": "[1]; room temperature, 1 month, normalized to −20° C. sample", "value": 99, "unit": "%"},
      {"measurement": "Percent of active compound remaining", "setting": "[1]; room temperature, 2 months, normalized to −20° C. sample", "value": 99, "unit": "%"},
      {"measurement": "Percent of active compound remaining", "setting": "[1]; room temperature, 3 months, normalized to −20° C. sample", "value": 97, "unit": "%"},
      {"measurement": "Percent of active compound remaining", "setting": "[1]; room temperature, 4 months, normalized to −20° C. sample", "value": 96, "unit": "%"},
      {"measurement": "Percent of active compound remaining", "setting": "[2]; 5° C., 4 months", "value": 99, "unit": "%"},
      {"measurement": "Percent of active compound remaining", "setting": "[2]; 5° C., 5 months", "value": 99, "unit": "%"},
      {"measurement": "Percent of active compound remaining", "setting": "[2]; 5° C., 6 months", "value": 100, "unit": "%"},
      {"measurement": "Percent of active compound remaining", "setting": "[2]; 5° C., 9 months", "value": 99, "unit": "%"},
      {"measurement": "Percent of active compound remaining", "setting": "[2]; 40° C., 4 months", "value": 74, "unit": "%"},
      {"measurement": "Percent of active compound remaining", "setting": "[2]; 40° C., 5 months", "value": 69, "unit": "%"},
      {"measurement": "Percent of active compound remaining", "setting": "[2]; 40° C., 6 months", "value": 63, "unit": "%"},
      {"measurement": "Percent of active compound remaining", "setting": "[2]; room temperature, 4 months", "value": 97, "unit": "%"},
      {"measurement": "Percent of active compound remaining", "setting": "[2]; room temperature, 5 months", "value": 95, "unit": "%"},
      {"measurement": "Percent of active compound remaining", "setting": "[2]; room temperature, 6 months", "value": 94, "unit": "%"},
      {"measurement": "Percent of active compound remaining", "setting": "[2]; room temperature, 9 months", "value": 90, "unit": "%"},
      {"measurement": "free base composition of nebulizer solution upon storage", "setting": "[3]", "value": "essentially unchanged"}
    ]},
    {"smiles": "Cl.Cl.O=CNc1cc([C@@H](O)CNCCc2ccc(NC[C@H](O)c3ccccc3)cc2)ccc1O", "note": "[crystalline diHCl salt of compound 1, N-{2-[4-((R)-2-hydroxy-2-phenylethylamino)phenyl]ethyl}-(R)-2-hydroxy-2-(3-formamido-4-hydroxyphenyl)ethylamine dihydrochloride]", "values": [
      {"measurement": "crystal stability by DSC after exposure to elevated temperature and humidity", "setting": "[4]", "value": "no detectable effect on crystal stability"},
      {"measurement": "crystal stability by DSC after exposure to elevated temperature and humidity", "setting": "[4]; listed as crystalline diHCl salt", "value": "no detectable difference"},
      {"measurement": "XRPD pattern after exposure to heat and humidity", "setting": "[4]; [6]", "value": "not appreciably affected"},
      {"measurement": "chemical degradation by HPLC", "setting": "[4]; [6]", "value": "no appreciable chemical degradation"},
      {"measurement": "water associated with crystals by TGA after exposure to high relative humidity", "setting": "[4]; 40° C. and 75% relative humidity, ground and unground crystals, 11 days", "value": "no appreciable quantity of water becomes associated"},
      {"measurement": "thermal stability", "setting": "[4]; elevated temperatures", "value": "thermally stable"},
      {"measurement": "hygroscopicity", "setting": "[4]; exposed to the atmosphere for prolonged periods at high relative humidity", "value": "neither hygroscopic nor deliquescent"},
      {"measurement": "decomposition on grinding into micronized particles", "setting": "[4]; ground into micronized particles", "value": "without significant decomposition"},
      {"measurement": "water content", "setting": "[5]; 6 mo at 40° C. and 75% relative humidity", "value": 0.37, "unit": "%"},
      {"measurement": "appearance of the material after storage", "setting": "[5]; [7]", "value": "no visible contamination"},
      {"measurement": "chemical purity by HPLC analysis after storage", "setting": "[5]; [7]", "value": "essentially unchanged"},
      {"measurement": "chiral purity after storage", "setting": "[5]; [7]", "value": "no change"},
      {"measurement": "water content", "setting": "[5]; initially", "value": 0.12, "unit": "%"}
    ]}
  ]
}
